# Columns and labels:
# [1] = Encapsulated drug stability, dialysis against PBS; format: physicochemical
# Description: Encapsulated drug stability: To measure the encapsulated drug's stability, we selected the encapsulated DOX M-EL[…],80 sample as a model system. […] Free DOX and encapsulated DOX were both made to 400 μM and 250 μL was added with a syringe to small volume Slide-a-Lyzer dialysis cassettes with a 3,500 Da molecular weight cutoff. […] At various time points, 3 mL of the filtrate was removed and replaced with fresh PBS. The fluorescence of the starting sample, filtrate, and retentate were measured in duplicate with a Wallac 1420 Victor3 Plate Reader (Perkin Elmer). Relative fluorescing units were converted to DOX concentrations using a standard curve made using serial dilution of free and encapsulated DOX. […] The cumulative DOX released was calculated and plotted as a function of dialysis time. […] At the end of the one week study, the retentate from each sample was removed and measured.
# [2] = cited from earlier work
compound,measurement,setting,value
"COc1cccc2c1C(=O)c1c(O)c3c(c(O)c1C2=O)C[C@@](O)(C(=O)CO)C[C@@H]3O[C@H]1C[C@H](N)[C@H](O)[C@H](C)O1 [DOXFree, doxorubicin]",DOX filtered out of cassette,[1]; after a week at 37° C.,99%
same,time to reach equilibrium in dialysis,"[1]; dialysis against PBS, 37° C.",≤ 24 h
same,octanol-water distribution coefficient (log D pH 7.5),[2],2.4
